Measured values as given in patent US20240101963A1, “SC-BETA CELLS AND COMPOSITIONS AND METHODS FOR GENERATING THE SAME” (President and Fellows of Harvard College, priority 2013, published 2024).

B1: prolactin: hormone tested for increasing β cell replication (protein, UniProt P01236 29-227, looked up)
Prolactin: LPICPGGAARCQVTLRDLFDRAVVLSHYIHNLSSEMFSEFDKRYTHGRGFITKAINSCHTSSLATPEDKEQAQQMNQKDFLSLIVSILRSWNEPLYHLVTEVRGMQEAPEAILSKAVEIEEQTKRLLEGMELIVSQVHPETKENEIYPVWSGLPSLQMADEESRLSAYYNLLHCLRRDSHKIDNYLKLLKCRIIHNNNC
B2: Activin A: growth factor from the TGF-β superfamily (protein, UniProt P08476 311-426, looked up)
Inhibin beta A chain: GLECDGKVNICCKKQFFVSFKDIGWNDWIIAPSGYHANYCEGECPSHIAGTSGSSLSFHSTVINHYRMRGHSPFANLKSCCVPTKLRPMSMLYYDDGQNIIKKDIQNMIVEECGCS
modifications: Inhibin beta A chain
notes: growth factor from the TGF-β superfamily

What was measured:
Type in all cases: cell-based, human
[1] = tested on: SC-β cells; assay: Insulin secretion of plated SC-β cells treated with anti-diabetic drugs in 2 and 20 mM glucose; conditions: SC-β cells treated with drug; trend
Method: FIG. 16A is a schematic illustration of the utility of SC-β cells for treating diabetes or screening drugs to improve function or replication. FIG. 16B is a table listing diabetic drugs investigated and their general therapeutic category. FIG. 16C is a graph showing ELISA measurements of secreted human insulin from plated SC-β cells treated with the indicated drugs in 2 and 20 mM glucose. Indicated p values compare the insulin value in 20 mM glucose between the drug and the control. FIG. 16D is an immunofluorescence image of dispersed and plated SC-β cells stained with DAPI (blue), C-peptide (green), and Ki67 (red) without treatment. FIG. 16E is an immunofluorescence image of dispersed and plated SC-β cells stained with DAPI (blue), C-peptide (green), and Ki67 (red) treated with prolactin for 48 hours. […] FIG. 16G is a graph illustrating fasting blood glucose measurements of Akita mice transplanted with SC-β cells (n=6) or PH cells (n=6). *p<0.05 comparing the two cell groups on the same day. FIG. 16H is a graph illustrating blood glucose measurements from progressively diabetic Akita mice transplanted with SC-β cells or PH cells. Measurements were taken before (white bars) and 20 min after (black bars) a glucose injection of mice transplanted 2 weeks prior. Glucose measurements were saturated at 550 mg/dL. *p<0.05 comparing the two cell groups at the same time post glucose injection. FIG. 16I is a graph showing ELISA measurements of human insulin from the serum of Akita mice 20 min after a glucose injection. Mice were challenged with glucose 2 weeks post transplantation. *p<0.05 comparing the two cell groups. Scale bar=50 μm.
The inventors first tested whether SC-β cells could respond to existing anti-diabetic drugs from several different classes (FIG. 16B). LY2608204 is glucokinase activator in clinical trials while liraglutide, tolbutamide, and nateglinide are examples of GLP-1 agonists and secretagogues (sulfonylureas and meglitinides), respectively, that have been used clinically (Matschinsky, 2009; Modi, 2007; Vetere et al., 2014).

[2] = tested on: hPSC; assay: Modified differentiation protocol Steps 3-6: cell survival and marker expression; conditions: for cell survival: Steps 3-5
Text: (Watanabe, K. et al., Nature Biotechnology 25, 681-686 (2007)).
(Watanabe et al.) Examples of Rock inhibitors include, but are not limited to, Y-27632, Fasudil/HA1077, and H-1152.
In addition to treating the cells with a Rocki inhibitor, the cells in Steps 3-4 can be treated with ActivinA alone or in combination with Nicotinamide.
Staurosporine is known to be an activator of neuronal, glial, and stem cell-like neurosphere differentiation and is also thought to induce apoptosis. (Schumacher, et al., Mol. Cell. Neurosci. 2003; 23(4): 669-680).

[3] = tested on: SC-β cells; assay: GSIS of SC-β cells after adding additional factors to CMRL media at last differentiation step (Stage 6); conditions: factor added to CMRL media containing Alk5 inhibitor and T3; versus CMRL only, CMRL+Alk5i+T3 or S3+Alk5i+T3
Text: To induce the in vitro maturation of at least some of the Pdx1-positive, NKX6-1-positive, insulin-positive endocrine cells into SC-β cells, the Pdx1-positive, NKX6-1-positive, insulin-positive endocrine cells are maintained in a suitable culture medium for a sufficient period of time. […] Adding additional factors to the CMRL media at the last step of differentiation (Stage 6) (FIG. 14A), however, was also found to generate a better glucose stimulated insulin secretion (GSIS) response by SC-β cells as measured by either stimulation index between high and low glucose challenges or by the amount of insulin released. Such additional factors may include, but are not limited to, Sant1, XXI, and SSP. The stimulation index, as calculated by the ratio of insulin secreted in high glucose (15 mM) to low glucose (2.5 mM), was greater for the SC-β cells maintained in a CMRL media containing Alk5 inhibitor, T3 hormone and either Sant1, XXI or SSP than those SC-β cells maintained in only CMRL media, CMRL media containing Alk5 inhibitor and T3 hormone, or S3 media containing Alk5 inhibitor and T3 hormone (FIG. 14B). Furthermore, the amount of insulin secreted was greater for the SC-β cells maintained in a CMRL media containing Alk5 inhibitor, T3 hormone and either Sant1, XXI or SSP than those SC-β cells maintained in only CMRL media, CMRL media containing Alk5 inhibitor and T3 hormone, or S3 media containing Alk5 inhibitor and T3 hormone (FIG. 14C).
Alternatively, Days 21-35: CMRLS+10 μM Alk5i II+1 μM T3+Sant1.
Alternatively, Days 21-35: CMRLS+10 μM Alk5i II+1 μM T3+XXI.
Alternatively, Days 21-35: CMRLS+10 μM Alk5i II+1 μM T3+SSP.

[4] = tested on: SC-β cells; assay: β cell replication: C-peptide/Ki67 staining of SC-β cells; conditions: SC-β cells cultured with prolactin (48 hours); untreated 0.20±0.08%
Text: Next the inventors tested whether SC-β cells could model β cell replication. Increasing a patient's β cell mass may improve glycemic control by producing more insulin in total without needing to increase the amount of insulin produced per β cell. To date, few if any drugs that have promoted β cell replication in rodent or cell line models have been translated to human β cells. […] The inventors tested whether treatment with prolactin could increase β cell replication in a SC-β cell population. After culturing SC-β cells with prolactin, cells were stained and fixed for C-peptide and the proliferation marker Ki67 (FIGS. 16D and 16E). Like primary human β cells, the baseline number of Ki67+ proliferating SC-β cells was very low (0.20±0.08% Ki67+/C-peptide+) (FIG. 16F).
Cells were dispersed and plated onto 96 well plates. After one day of culture, cells were washed in PBS and fixed in 4% PFA for 20 min at RT. Following 3 washes with PBS, cells were blocked for 1 hour at RT in PBS+0.1% Triton X-100+5% donkey serum. […] The percentage of target cell-types was quantified using the Array Scan Cellomics high-content screening system. Here 30 images were acquired per well and quantified. Cells labeled by antibody staining and total cell number (based on DAPI nuclei staining) were quantified to obtain percentages of target cell types.

| Molecule | insulin secretion in vitro following a glucose challenge [1] | amount of insulin secreted [3] | stimulation index, ratio of insulin secreted in high glucose (15 mM) to low glucose (2.5 mM) [3] | other results |
| --- | --- | --- | --- | --- |
| O=C(Nc1ncc(SCCN2CCCC2)s1)[C@]1(c2ccc(S(=O)(=O)C3CC3)cc2)C[C@H]1C1CCCCC1 [LY2608204] | increasing insulin secretion | – | – | – |
| NC(=O)c1cccnc1 [Nicotinamide] | – | – | – | cell survival [2]: improve cell survival |
| Cc1nn(-c2ccccc2)c(C)c1/C=N/N1CCN(Cc2ccccc2)CC1 [Sant1] | – | greater | greater | – |
| C[C@H](NC(=O)Cc1cc(F)cc(F)c1)C(=O)N[C@H]1N=C(c2ccccc2)c2ccccc2N(C)C1=O [XXI] | – | greater | greater | NeuroD1+ population ([2]; XXI added to medium with Alk5i and T3 at Steps 5 and 6): increase |
| CC(C)[C@H]1CC[C@H](C(=O)N[C@H](Cc2ccccc2)C(=O)O)CC1 [nateglinide] | increasing insulin secretion | – | – | – |
| CN[C@@H]1C[C@H]2O[C@@](C)([C@@H]1OC)n1c3ccccc3c3c4c(c5c6ccccc6n2c5c31)C(=O)NC4 [staurosporine] | – | greater | greater | percentage of ChromograninA ([2]; Steps 5-6): increasing; percentage of NKX6-1.C-peptide+ cells ([2]; Steps 5-6): increasing |
| CCCCNC(=O)NS(=O)(=O)c1ccc(C)cc1 [tolbutamide] | increasing insulin secretion | – | – | – |
| B1 | – | – | – | Ki67+/C-peptide+ cells after prolactin treatment [4]: 0.39±0.08% |
| B2 | – | – | – | cell survival [2]: improve cell survival |
